Key:
cancer stem cells = settings: Fbxw7-deficient model mice, Takeishi et al. 2013; cited from earlier work
Wnt/β-catenin signal = settings: as described in Patent Literature 1; cited from earlier work
[1] = test system: cancer stem cells (CD44) in HuH-7 cells; assay: Inhibitory effect on cancer stem cells (FCM analysis of CD44), Example 6.4; format: cell-based, human; settings: CD44, day 2, IC-2 50 μM, 5-FU 0.5 μM, compared with control 1% DMSO
Method: CD44, a cancer stem cell marker, was used as an indicator to examine an inhibitory effect of IC-2 on cancer stem cells. First, 70 to 90% confluent HuH-7 cells were harvested and seeded at 1.5×10^6 cells per 10-cm cell culture dish. After 15 h, the cells were treated with hexachlorophene (15 μM), ICG-001 (15 μM), PKF118-310 (5 μM), IC-2 (50 μM), or 5-FU (0.5 μM), and the mixture was cultured at 37° C. Each control sample used was 1% DMSO, a solvent for each compound or the anti-cancer drug. Day 2 after the drug treatment, the cells were harvested from each culture dish. The cells were centrifuged at 1000 rpm and at 4° C. for 5 min to remove a supernatant and were then washed twice with 1 mL of 0.5% FBS/2 mM EDTA/PBS. Next, the cells were suspended in 500 μL of 5% BSA/0.5% FBS/2 mM EDTA/PBS for blocking at 4° C. for 15 min.
Then, 5 μL of a mouse anti-human CD44 monoclonal antibody (156-3C11, Cell Signaling Technology Inc., Danvers, Mass.) was added to 500 μL of the cell suspension. The mixture was resuspended and subjected to a primary antibody reaction in a dark room at 4° C. for 10 min. After that, the cells were washed 3 times with 1 mL of PBS. Subsequently, 1.0 μg of Alexa Fluor 488-labeled IgG (H+L) (Life Technologies Corp., Carlsbad, Calif.) was added and the mixture was suspended. Then, a secondary antibody reaction was carried out in a dark room at 4° C. for 10 min. […]

[2] = Liver cancer model mouse, body weight; format: in vivo, mice; settings: 30 mg/kg 5-FU or 50 mg/kg IC-2 intraperitoneally every three days
Method: CD44-positive HuH-7 cells were subcutaneously transplanted in mice. Next, the engrafted mice were divided into 3 groups (DMSO group: 5 mice; 5-FU group: 4 mice; and IC-2 group: 4 mice). Then, DMSO was added to prepare 30 mg/kg of 5-FU and 50 mg/kg of IC-2 such that each liquid volume was 100 μL; and 100% DMSO, a solvent for each drug, was used as a control sample. Subsequently, each drug was dosed intraperitoneally every three days. The body weight of each mouse and the long and short diameters of a tumor were measured every three days. The tumor volume was calculated by using the following equation: Tumor volume=Long diameter×(Short diameter)^2×0.5. The volume at Day 0 was used to normalize each tumor volume, and then a graph was created. To fully evaluate a 5-FU effect, the 5-FU dose was set to an amount 2 times the regular amount 15 mg/kg used in research articles. The concentration of IC-2 corresponding to a concentration at which Wnt/β-catenin signaling was inhibited in vitro was calculated. Then, the concentration was doubled to set an IC-2 dose.

[3] = test system: CD44-expressing HSC2 cells; assay: CD44-expressing cells in HSC2 cells (cell sorter analysis); format: cell-based, human; settings: 48 h, 25 μM IC-2 or 0.5 μM 5-FU, 83.9% without treatment
Method: In addition, HSC2 cells were seeded at 5×10^5 cells/10-cm cell culture dish (TPP). After 24 h, the cells were treated with 0.5 μM of 5-FU or 25 μM of IC-2. Also prepared were cells without low-molecular-weight compound treatment (0 μM). After additional 48 h, the respective cells were harvested. As a primary antibody, used was a mouse anti-human CD44 antibody (Abcam Ltd., Cambridge, UK). Then, Alexa Fluor 488-labeled goat anti-mouse IgG (H+L) (Life Technologies Corp., Carlsbad, Calif.) was used. After that, a cell sorter BD bioscience FACS Aria (Becton, Dickinson and Company, Franklin Lakes, N.J.) was used for analysis.

CD44high DLD-1 cells = assay: CD44high cells in DLD-1 cells (FCM analysis); format: cell-based, human; settings: 48 h, 50 μM IC-2, 0.5 or 5 μM 5-FU, compared with control
Method: In addition, DLD-1 cells were seeded at 1×10^6 cells/10-cm cell culture dish. After 24 h, the cells were treated with 0.5 or 5 μM of 5-FU or 50 μM of IC-2. At additional 48 h, the cells were harvested. As a primary antibody, used was a mouse anti-human CD44 antibody (Abcam Ltd., Cambridge, UK). Then, Alexa Fluor 488-labeled goat anti-mouse IgG (H+L) (Life Technologies Corp., Carlsbad, Calif.) was used. After that, a MoFlo XDP (Beckman Coulter Inc., Fullerton, Calif.) was used for analysis.

Cc1ccc(NC(=O)c2ccc(CN3CCN(C)CC3)cc2)cc1Nc1nccc(-c2cccnc2)n1 [imatinib]
cancer stem cells (cancer stem cells): cancer stem cells were killed

COc1c(Cl)cc(Cl)c(Cl)c1Cc1c(Cl)c(Cl)cc(Cl)c1OC [HC-1, hexachlorophene methyl ether bis(2,3,5-trichloro-6-methoxyphenyl)methane]
Wnt/β-catenin signal in a mesenchymal stem cell and differentiation into hepatocytes (Wnt/β-catenin signal): inhibit a Wnt/β-catenin signal in a mesenchymal stem cell, thereby inducing differentiation of the mesenchymal stem cell into hepatocytes

O=c1[nH]cc(F)c(=O)[nH]1 [Compound 5-FU, 5-fluorouracil, reference compound]
number of cancer stem cells [1]: rather increased the number of cancer stem cells | body weight [2]: no change in the body weight | percentage of CD44-expressing cells [3]: 83.3% | percentage of CD44high cells (CD44high DLD-1 cells): rather increased the percentage

Reference: patent US10597398B2, “Suppression and regeneration promoting effect of low molecular weight compound on cancer and fibrosis” (NATIONAL UNIVERSITY CORPORATION TOTTORI UNIVERSITY, priority 2015, dated 2020)
